Laboratory results as given in paper PMC7887271, “Fast acting allosteric phosphofructokinase inhibitors block trypanosome glycolysis and cure acute African trypanosomiasis in mice” (Nature Communications, 2021).
“Also recorded” adds a separate entry of the source.

Target: T1, TbPFK (Trypanosoma brucei brucei, UniProt O15648)
T1 construct: made in house; host or cells: Escherichia coli C41 (pET28a, codon optimised gene)
T1 sequence (O15648 1-487): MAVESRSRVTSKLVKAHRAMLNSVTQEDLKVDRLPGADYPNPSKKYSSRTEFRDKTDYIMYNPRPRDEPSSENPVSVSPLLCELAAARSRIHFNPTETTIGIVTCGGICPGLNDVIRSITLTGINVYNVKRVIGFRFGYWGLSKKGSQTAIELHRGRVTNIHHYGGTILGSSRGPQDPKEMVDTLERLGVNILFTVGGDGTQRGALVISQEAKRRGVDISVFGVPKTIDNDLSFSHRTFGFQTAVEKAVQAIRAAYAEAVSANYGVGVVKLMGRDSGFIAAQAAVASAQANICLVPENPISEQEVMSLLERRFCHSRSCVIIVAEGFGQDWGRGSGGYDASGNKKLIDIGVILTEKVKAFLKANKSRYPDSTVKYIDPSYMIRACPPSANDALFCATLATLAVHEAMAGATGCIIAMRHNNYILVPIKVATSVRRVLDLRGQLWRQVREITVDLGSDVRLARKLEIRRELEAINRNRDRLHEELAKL
Assay: PYK/LDH linked enzyme assay to determine inhibitor mode of action
Type: biochemical
Description: TbPFK inhibition was studied using an enzyme assay, in which production of ADP by TbPFK was coupled to the reactions of pyruvate kinase and lactate dehydrogenase: the conversion of pyruvate to lactate and NADH to NAD^+, is monitored by reduction of UV absorbance at 340 nm.
Parasite enzyme kinetic data were measured using N-terminally His6-tagged TbPFK expressed in Escherichia coli C41 cells, using a codon optimised gene inserted in a pET28a vector (Supplementary Methods 1). Recombinant human PFKs were expressed in PFK-deficient Saccharomyces cerevisiae. PFK enzyme inhibition was measured using an ADP-Glo^TM assay (Promega) in a 96-well plate format (Supplementary Methods 2.1), using a Spectramax© M5 Multimode Plate Reader to measure luminescence values which were converted to ADP concentrations. IC50 values were determined using a sigmoidal curve fitting algorithm in Kaleidagraph 4 (Supplementary Fig. 1). Mode of action studies were carried out using a linked enzyme assay coupling the forward reaction of TbPFK to the M1 isoform of human pyruvate kinase followed by lactate dehydrogenase. The change in UV absorbance at 340 nm resulting from the conversion of NADH to NAD^+ was measured at 25 °C in ‘kinetic mode’ on a Spectramax© M5 Multimode plate reader. […] An alternative linked enzyme assay was developed to control for the potential inhibitory activity of ATP on human PFK (Supplementary Methods 2.3).
The mechanism of TbPFK inhibition was studied using a coupled enzyme assay in which production of ADP by TbPFK was coupled to the reaction of human M1 isoform pyruvate kinase (hPYK), which converts ADP and phosphoenolpyruvate (PEP) to ATP and pyruvate. The reaction is further coupled to lactate dehydrogenase (LDH), which converts pyruvate and NADH to lactate and NAD^+, respectively. NADH conversion was monitored by measuring changes in NADH absorbance.
A 2.5x ‘assay mix’ was made containing 4.8 mM PEP, 1.2 mM NADH , 20 U/ml PYK, 33 U/ml LDH, 0 to 3mM ATP in assay buffer (10 mM MgCl2, 100 mM KCl, 50 mM TEA, 10% glycerol, 0.005% Tween-20, pH 7.4). For measuring activity 40 µl of assay mix was plated in a clear, non-binding 96 well plate (Greiner Bio-One cat. no. 655901) with 4-10 µl of the PFK sample (typically a 0.1 mg/ml stock) to be tested and 40 – 46 µl of assay buffer. The reaction was started upon addition of 10 µl of up to 6 mM F6P (0.6 mM final concentration). Absorbance at 340 nm was read at 20 second intervals for 10 minutes at 25 °C in ‘kinetic mode’ on a Spectramax© M5 Multimode plate reader. The gradient of the linear section of raw plots of NADH absorbance over time were used to obtain initial velocities.

SMILES: CN(C)CCn1ccc2c(ccn2Cc2ccc(Cl)c(Cl)c2)c1=O [CTCB-405, 1-[(3,4-Dichlorophenyl)methyl]-5-[2-(dimethylamino)ethyl] pyrrolo[3,2-c]pyridin-4-one]
- mode of inhibition with respect to ATP and F6P: not competitive with either ATP or F6P; also recorded: not competitive with either substrate
- Vmax, Michaelis Menten best fit versus ATP (CTCB-405 at 0.5 x IC50): 36.5 µmol/min/mg
- Vmax, Michaelis Menten best fit versus F6P (CTCB-405 at 0.5 x IC50): 38.7 µmol/min/mg
- Vmax, Michaelis Menten best fit versus ATP (CTCB-405 at 1x IC50): 33.8 µmol/min/mg
- Vmax, Michaelis Menten best fit versus F6P (CTCB-405 at 1x IC50): 33.6 µmol/min/mg
- Vmax, Michaelis Menten best fit versus ATP (CTCB-405 at 2 x IC50): 26.6 µmol/min/mg
- Vmax, Michaelis Menten best fit versus F6P (CTCB-405 at 2 x IC50): 34.0 µmol/min/mg
